# Laboratory results published in patent US8147838B2, “Peptide” (priority 2005, dated 2012).
# No end group written: not given here.
# Target: MHC class I allele A*0101 (A1) (Homo sapiens, UniProt P04439, A114D/A174V/A182V/D101N/D185E/E176A/E190D/L180R/Q94H/R68K/S129P/T187R/V100A/V91M/W191G)
# Test: iScore multi-parametric analysis, A*0101
# Format: binding
# Conditions: integrates half-life and ED50
# Description: (§1) Finally, multiparametric analysis is performed on the results from these assays and an iScore is generated. The iScore represents a measure of the overall quality of peptide-MHC binding, enabling candidate peptides to be ranked in order of binding quality and allowing rational prioritisation of peptides for functional cellular follow-up studies.
# (§2) As part of the validation of the iTopia system, a panel of overlapping peptides derived from the CMV pp 65 protein were used and their binding properties for the A*0201 allele analysed. A number of T cell epitopes restricted by HLA A*0201 had already been identified (by more conventional methodologies) by other researchers for this protein. In the iTopia study, it was reported that an iScore of: >0.5 represented “good quality binding”; between 0.25 and 0.5 represented “medium quality binding”; and <0.25 represented “poor quality binding”. Six of the 20 peptides which gave a “good” iScore (>0.5) for A*0201, represented previously characterised CMV pp 65 A*0201 epitopes.
# (§3) Each MHC class I allele has different binding properties and affinities for peptides which they bind. Therefore, information obtained with HLA A*0201 in which peptides are ranked as good, medium or poor binders using >0.5, 0.25-0.5 and <0.25 as thresholds is not necessarily transferable between alleles. Also, different proteins are likely to have distinct immunogenic profiles and the affinities between peptides and MHC class I molecules will be different between proteins. This may be particularly relevant in the case of self-antigens where immunogenicity is likely to be lower than in foreign proteins.
# (§4) Multi-parametric analysis permits the integration of half-life and ED50 parameters in an integrated iScore. This reflects the capability of a peptide to reconstitute with MHC molecules in a stable complex, defining its overall level of binding i.e. the iScore value represents the overall quality of peptide-MHC binding and is used to rank candidate peptides as an indicator of functional relevance. The lead candidate epitopes for each allele are selected for cellular functional analysis to confirm their biological relevance.
# (§5) The changes in gradient of the graphs in FIGS. 7 to 10 are indicated by a line which delineates the populations of iScores forming the basis of discrimination for further functional studies.
row,"iScore (iTopia), A*0101",Sequence
1,0.12,LASNHFLYL [Peptide 109]

# Same assay, conditions: level of binding: >0.5, 0.25-0.5, <0.25
row,Sequence,"iScore, MHC Class I Molecule A*0101"
1,ILNHIVPPE [Peptide 90],0
2,LAELAALNL [Peptide 59],0
3,LALVLLGWV [Peptide 11],0
4,LASNHFLYL [Peptide 109],0.12
5,LAVLPAGAF [Peptide 52],0
6,LDLSHNPLA [Peptide 74],0
7,LELASNHFL [Peptide 108],0
8,LLAGRALQG [Peptide 102],0
9,LLGWVSSSS [Peptide 13],0
10,LQGLRRLEL [Peptide 105],0
11,LSGSRLDEV [Peptide 63],0
12,LSHNPLADL [Peptide 75],0
13,LSPFAFSGS [Peptide 79],0
14,LVELILNHI [Peptide 88],0
15,LVLLGWVSS [Peptide 12],0
16,LYLPRDVLA [Peptide 112],0
17,NQLAVLPAG [Peptide 51],0
18,"PLPDQCPAL [Peptide 29, PLPDQCPAL]",0
19,"PPLAELAAL [Peptide 58, PPLAELAAL]",0
20,QNRSFEGMV [Peptide 96],0
21,RALQGLRRL [Peptide 104],0

# Now from value to sequence:
row,"iScore, MHC Class I Molecule A*0101",Sequence
1,0,IKKWMHNIR [Peptide 191]
2,0,ILPPSLQTS [Peptide 174]
3,0,KVLHNGTLA [Peptide 136]
4,0,KWMHNIRDA [Peptide 192]
5,0,LALIGAIFL [Peptide 182]
6,0,LDLSNNSLV [Peptide 120]
7,0,LEDNALKVL [Peptide 133]
8,0,LHNGTLAEL [Peptide 137]
9,0,LPRDVLAQL [Peptide 113]
10,0,LQGLPHIRV [Peptide 141]
11,0,LSNNSLVSL [Peptide 121]
12,0,LTHLESLHL [Peptide 129]
13,0,LTNLSSNSD [Peptide 206]
14,0,MHNIRDACR [Peptide 193]
15,0,MVTWLKETE [Peptide 153]
16,0,NRKGIKKWM [Peptide 189]
17,0,NRVLLELNS [Peptide 166]
18,0,PPSLQTSYV [Peptide 175]
19,0.027,QTSYVFLGI [Peptide 177]

# Target: MHC class I allele A*0201 (A2) (Homo sapiens, UniProt P04439, D140Y/D185E/D98H/E176V/E277Q/G131W/G231S/I119V/I121R/I166T/I218V/L300P/L318F/N151K/N90K/P208A/P217A/Q86G/Q94H/R138H/R169H/T345S)
# Test: iScore multi-parametric analysis, A*0201
# Format: binding
# Conditions: level of binding: >0.5, 0.25-0.5, <0.25
# Description: as §1, §2, §3, §4, §5
row,Sequence,"iScore, MHC Class I Molecule A*0201"
1,ILNHIVPPE [Peptide 90],0.426
2,LAELAALNL [Peptide 59],0.72
3,LALVLLGWV [Peptide 11],0.237
4,LASNHFLYL [Peptide 109],0.337
5,LAVLPAGAF [Peptide 52],0.074
6,LDLSHNPLA [Peptide 74],0.226
7,LELASNHFL [Peptide 108],0.151
8,LLAGRALQG [Peptide 102],0.176
9,LLGWVSSSS [Peptide 13],0.243
10,LQGLRRLEL [Peptide 105],0.114
11,LSGSRLDEV [Peptide 63],0.075
12,LSHNPLADL [Peptide 75],0.095
13,LSPFAFSGS [Peptide 79],0.064
14,LVELILNHI [Peptide 88],0.109
15,LVLLGWVSS [Peptide 12],0.122
16,LYLPRDVLA [Peptide 112],0.218
17,NQLAVLPAG [Peptide 51],0.22
18,"PLPDQCPAL [Peptide 29, PLPDQCPAL]",0.088
19,"PPLAELAAL [Peptide 58, PPLAELAAL]",0.075
20,QNRSFEGMV [Peptide 96],0.052
21,RALQGLRRL [Peptide 104],0.168

# The next lines start with the values.
row,"iScore, MHC Class I Molecule A*0201",Sequence
1,0.181,IKKWMHNIR [Peptide 191]
2,0.523,ILPPSLQTS [Peptide 174]
3,0.15,KVLHNGTLA [Peptide 136]
4,0.045,KWMHNIRDA [Peptide 192]
5,0.425,LALIGAIFL [Peptide 182]
6,0.158,LDLSNNSLV [Peptide 120]
7,0.122,LEDNALKVL [Peptide 133]
8,0.187,LHNGTLAEL [Peptide 137]
9,0,LPRDVLAQL [Peptide 113]
10,0.2,LQGLPHIRV [Peptide 141]
11,0.116,LSNNSLVSL [Peptide 121]
12,0.143,LTHLESLHL [Peptide 129]
13,0.027,LTNLSSNSD [Peptide 206]
14,0.093,MHNIRDACR [Peptide 193]
15,0.051,MVTWLKETE [Peptide 153]
16,0.138,NRKGIKKWM [Peptide 189]
17,0.031,NRVLLELNS [Peptide 166]
18,0.145,PPSLQTSYV [Peptide 175]
19,0.127,QTSYVFLGI [Peptide 177]

# Target: MHC class I allele A*0301 (A3) (Homo sapiens, UniProt P04439)
# Test: iScore multi-parametric analysis, A*0301
# Format: binding
# Conditions: integrates half-life and ED50
# Description: as §1, §2, §3, §4, §5
row,"iScore (iTopia), A*0301",Sequence
1,0.224,LASNHFLYL [Peptide 109]

# Same assay, conditions: level of binding: >0.5, 0.25-0.5, <0.25
row,Sequence,"iScore, MHC Class I Molecule A*0301"
1,ILNHIVPPE [Peptide 90],0
2,LAELAALNL [Peptide 59],0
3,LALVLLGWV [Peptide 11],0
4,LASNHFLYL [Peptide 109],0.224
5,LAVLPAGAF [Peptide 52],0
6,LDLSHNPLA [Peptide 74],0
7,LELASNHFL [Peptide 108],0
8,LLAGRALQG [Peptide 102],0
9,LLGWVSSSS [Peptide 13],0
10,LQGLRRLEL [Peptide 105],0
11,LSGSRLDEV [Peptide 63],0
12,LSHNPLADL [Peptide 75],0
13,LSPFAFSGS [Peptide 79],0
14,LVELILNHI [Peptide 88],0
15,LVLLGWVSS [Peptide 12],0
16,LYLPRDVLA [Peptide 112],0
17,NQLAVLPAG [Peptide 51],0
18,"PLPDQCPAL [Peptide 29, PLPDQCPAL]",0
19,"PPLAELAAL [Peptide 58, PPLAELAAL]",0
20,QNRSFEGMV [Peptide 96],0
21,RALQGLRRL [Peptide 104],0.027

# Now from value to sequence:
row,"iScore, MHC Class I Molecule A*0301",Sequence
1,0,IKKWMHNIR [Peptide 191]
2,0,ILPPSLQTS [Peptide 174]
3,0,KVLHNGTLA [Peptide 136]
4,0,KWMHNIRDA [Peptide 192]
5,0,LALIGAIFL [Peptide 182]
6,0,LDLSNNSLV [Peptide 120]
7,0,LEDNALKVL [Peptide 133]
8,0,LHNGTLAEL [Peptide 137]
9,0,LPRDVLAQL [Peptide 113]
10,0,LQGLPHIRV [Peptide 141]
11,0,LSNNSLVSL [Peptide 121]
12,0,LTHLESLHL [Peptide 129]
13,0,LTNLSSNSD [Peptide 206]
14,0,MHNIRDACR [Peptide 193]
15,0,MVTWLKETE [Peptide 153]
16,0,NRKGIKKWM [Peptide 189]
17,0,NRVLLELNS [Peptide 166]
18,0,PPSLQTSYV [Peptide 175]
19,0,QTSYVFLGI [Peptide 177]

# Target: MHC class I allele B*0702 (B7) (Homo sapiens, UniProt P01889)
# Test: iScore multi-parametric analysis, B*0702
# Conditions: level of binding: >0.5, 0.25-0.5, <0.25
# Description: as §1
# As part of the validation of the iTopia system, a panel of overlapping peptides derived from the CMV pp 65 protein were used and their binding properties for the A*0201 allele analysed. A number of T cell epitopes restricted by HLA A*0201 had already been identified (by more conventional methodologies) by other researchers for this protein. In the iTopia study, it was reported that an iScore of: >0.5 represented “good quality binding”; between 0.25 and 0.5 represented “medium quality binding”; and <0.25 represented “poor quality binding”.
# as §4
row,Sequence,"iScore, MHC Class I Molecule B*0702"
1,ILNHIVPPE [Peptide 90],0
2,LAELAALNL [Peptide 59],0.074
3,LALVLLGWV [Peptide 11],0
4,LASNHFLYL [Peptide 109],0
5,LAVLPAGAF [Peptide 52],0.049
6,LDLSHNPLA [Peptide 74],0
7,LELASNHFL [Peptide 108],0
8,LLAGRALQG [Peptide 102],0
9,LLGWVSSSS [Peptide 13],0
10,LQGLRRLEL [Peptide 105],0.119
11,LSGSRLDEV [Peptide 63],0.107
12,LSHNPLADL [Peptide 75],0
13,LSPFAFSGS [Peptide 79],0
14,LVELILNHI [Peptide 88],0
15,LVLLGWVSS [Peptide 12],0
16,LYLPRDVLA [Peptide 112],0
17,NQLAVLPAG [Peptide 51],0
18,"PLPDQCPAL [Peptide 29, PLPDQCPAL]",0
19,"PPLAELAAL [Peptide 58, PPLAELAAL]",0.145
20,QNRSFEGMV [Peptide 96],0
21,RALQGLRRL [Peptide 104],0.078

# Continued, values first:
row,"iScore, MHC Class I Molecule B*0702",Sequence
1,0,IKKWMHNIR [Peptide 191]
2,0,ILPPSLQTS [Peptide 174]
3,0,KVLHNGTLA [Peptide 136]
4,0,KWMHNIRDA [Peptide 192]
5,0.067,LALIGAIFL [Peptide 182]
6,0,LDLSNNSLV [Peptide 120]
7,0,LEDNALKVL [Peptide 133]
8,0.026,LHNGTLAEL [Peptide 137]
9,0.305,LPRDVLAQL [Peptide 113]
10,0,LQGLPHIRV [Peptide 141]
11,0.112,LSNNSLVSL [Peptide 121]
12,0,LTHLESLHL [Peptide 129]
13,0,LTNLSSNSD [Peptide 206]
14,0,MHNIRDACR [Peptide 193]
15,0,MVTWLKETE [Peptide 153]
16,0,NRKGIKKWM [Peptide 189]
17,0,NRVLLELNS [Peptide 166]
18,0,PPSLQTSYV [Peptide 175]
19,0,QTSYVFLGI [Peptide 177]
